Reference: patent publication US20200155687A1, “METHODS OF TREATMENT USING AN A[…]” (Shire Pharmaceuticals Inc., priority 2017, published 2020)

Tests used:
α2-adrenergic receptor [1] = experiment: general side-effect profile panel (receptors, transporters, ion channels, enzymes); type: binding
Procedure: (§1) In a general side-effect profile panel using a wide range of receptors, transporters, ion channels, enzymes and other biological targets that could directly or indirectly influence dopaminergic or noradrenergic neurotransmission in the brain, initial results indicated some 1-homoarginine-d-amphetamine dihydrochloride activity at the α2-adrenergic receptor. However, after completion of a confirmatory half maximal inhibitory concentration (IC50) assay, it was determined that it is unlikely that 1-homoarginine-d-amphetamine dihydrochloride would cause any side-effects related to any of the common enzymes/receptors.

α2-adrenergic receptor [2] = experiment: confirmatory half maximal inhibitory concentration (IC50) assay; type: binding; conditions: after completion of confirmatory IC50 assay
Procedure: as §1

[3] = molecular target: human recombinant norepinephrine transporter (Homo sapiens, UniProt P23975); experiment: in vitro radioligand binding study, norepinephrine transporter; conditions: intact prodrug, up to 10 μM
Description: (§2) Therefore, there is no direct interaction by 1-homoarginine-d-amphetamine dihydrochloride with primary targets critical for the pharmacological effects of d-amphetamine.

[4] = molecular target: human recombinant dopamine transporter (Homo sapiens, UniProt Q01959); experiment: in vitro radioligand binding study, dopamine transporter; conditions: intact prodrug, up to 10 μM
Description: as §2

rats = experiment: motor activity in rats after PO, IV or IN administration; type: in vivo; conditions: rat; for increase in activity: IV; for activity levels compared to controls: single IN dose
Procedure: The pharmacodynamic properties of 1-homoarginine-d-amphetamine dihydrochloride in rats were evaluated and compared to lisdexamfetamine dimesylate and vehicle control after oral (PO), intravenous (IV) and intranasal (IN) administration.
The activity levels of rats after a single IN dose of 1-homoarginine-d-amphetamine dihydrochloride (5.25 mg/kg) was not increased when compared to controls.

human recombinant norepinephrine transporter, sequence (P23975 whole entry): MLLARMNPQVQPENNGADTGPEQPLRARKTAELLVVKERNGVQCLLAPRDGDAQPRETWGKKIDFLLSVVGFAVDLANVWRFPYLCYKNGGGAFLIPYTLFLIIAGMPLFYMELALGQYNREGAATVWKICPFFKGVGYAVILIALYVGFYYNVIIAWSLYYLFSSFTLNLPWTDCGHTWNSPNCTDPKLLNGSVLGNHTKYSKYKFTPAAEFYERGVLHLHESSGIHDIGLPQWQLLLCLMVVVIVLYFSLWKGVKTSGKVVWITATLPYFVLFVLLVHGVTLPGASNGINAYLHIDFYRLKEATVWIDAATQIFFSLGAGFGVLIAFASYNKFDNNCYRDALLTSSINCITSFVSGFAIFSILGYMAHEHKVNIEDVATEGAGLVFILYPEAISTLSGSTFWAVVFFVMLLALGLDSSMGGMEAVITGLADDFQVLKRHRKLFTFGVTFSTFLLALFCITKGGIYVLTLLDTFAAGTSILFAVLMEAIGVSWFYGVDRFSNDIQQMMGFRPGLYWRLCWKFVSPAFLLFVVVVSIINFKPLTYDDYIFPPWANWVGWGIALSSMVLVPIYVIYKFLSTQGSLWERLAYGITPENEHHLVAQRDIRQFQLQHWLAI
human recombinant dopamine transporter, sequence (Q01959 whole entry): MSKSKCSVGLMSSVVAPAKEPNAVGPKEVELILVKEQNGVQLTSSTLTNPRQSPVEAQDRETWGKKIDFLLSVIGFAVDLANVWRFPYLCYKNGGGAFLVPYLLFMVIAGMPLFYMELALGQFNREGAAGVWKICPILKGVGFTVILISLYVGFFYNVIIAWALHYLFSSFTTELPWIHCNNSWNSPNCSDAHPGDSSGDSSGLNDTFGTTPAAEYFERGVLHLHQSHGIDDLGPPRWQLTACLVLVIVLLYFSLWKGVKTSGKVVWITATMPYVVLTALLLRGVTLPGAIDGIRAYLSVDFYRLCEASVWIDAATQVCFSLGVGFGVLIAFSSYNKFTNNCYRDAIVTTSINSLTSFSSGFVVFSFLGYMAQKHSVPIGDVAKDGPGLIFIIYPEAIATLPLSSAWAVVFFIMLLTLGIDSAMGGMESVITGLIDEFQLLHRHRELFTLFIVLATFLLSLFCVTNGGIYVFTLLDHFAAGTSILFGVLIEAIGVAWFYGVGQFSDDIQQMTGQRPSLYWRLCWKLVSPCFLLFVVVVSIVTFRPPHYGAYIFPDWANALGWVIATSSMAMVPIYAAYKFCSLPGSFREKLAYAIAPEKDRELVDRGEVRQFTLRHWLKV

## C[C@@H](Cc1ccccc1)NC(=O)[C@@H](N)CCCCNC(=N)N.Cl [1-homoarginine-d-amphetamine dihydrochloride]
α2-adrenergic receptor [1]
  activity at the α2-adrenergic receptor (initial results): some
α2-adrenergic receptor [2]
  likelihood of side-effects related to any of the common enzymes/receptors: unlikely
[3]
  activity at the norepinephrine transporter site: no significant activity
[4]
  activity at the dopamine transporter site: no significant activity
rats; 5.25 mg/kg
  increase in activity: approximately 15%
  activity levels compared to controls: not increased
rats; PO, 4.37 mg/kg
  motor activity compared to the vehicle control group: induced an increase in motor activity
rats; PO, 4.37 mg/kg, initial three hours of the study
  activity levels versus lisdexamfetamine (4.21 mg/kg) comparator group: in general lower

## lisdexamfetamine dimesylate [reference compound]
rats; 5.05 mg/kg
  increase in activity: 60%
  activity levels compared to controls: A similar result
